Results reported in the supplement of paper PMC10307832.

How the values were obtained:
Experiment in all cases: relative viability (nuclei count vs DMSO), 5 days (fraction); higher = more cells survive
NCI-H23 = test system: NCI-H23
Method in brief: (§1)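 The day after seeding in 1536-well plates, lung cancer cell lines were treated by pin tool with a single drug, or with a fixed anchor-drug dose together with five library-drug doses (not always all listed) in √10 steps. After 5 days, a combined fix-and-stain solution (final 0.05% Triton X-100, 1% formaldehyde, 1 ug/ml Hoechst) was added. Nuclei counted on 4× images gave relative viability as treated counts over vehicle counts, reported as the median of duplicate plates.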

EPLC-272H = test system: EPLC-272H
Method in brief: as §1

H3255 = test system: H3255
Method in brief: as §1

PC-14 = test system: PC-14
Method in brief: as §1

201T = test system: 201T
Method in brief: as §1

COR-L 105 = test system: COR-L 105
Method in brief: as §1

NCI-H2126 = test system: NCI-H2126
Method in brief: as §1

NCI-H2347 = test system: NCI-H2347
Method in brief: as §1

NCI-H520 = test system: NCI-H520
Method in brief: as §1

HCC-78 = test system: HCC-78
Method in brief: as §1

LCLC-97TM1 = test system: LCLC-97TM1
Method in brief: as §1

NCI-H1915 = test system: NCI-H1915
Method in brief: as §1

NCI-H1666 = test system: NCI-H1666
Method in brief: as §1

NCI-H2405 = test system: NCI-H2405
Method in brief: as §1

NCI-H647 = test system: NCI-H647
Method in brief: as §1

LC-2-ad = test system: LC-2-ad
Method in brief: as §1

NCI-H2087 = test system: NCI-H2087
Method in brief: as §1

NCI-H650 = test system: NCI-H650
Method in brief: as §1

RERF-LC-KJ = test system: RERF-LC-KJ
Method in brief: as §1

HCC-827 = test system: HCC-827
Method in brief: as §1

NCI-H661 = test system: NCI-H661
Method in brief: as §1

## Nc1ccn([C@@H]2O[C@H](CO)[C@@H](O)[C@@H]2O)c(=O)n1 [Cytarabine] + CS(=O)(=O)CCNCc1ccc(-c2ccc3ncnc(Nc4ccc(OCc5cccc(F)c5)c(Cl)c4)c3c2)o1 [Lapatinib] (partner 2 µM)
NCI-H23; first compound 0.005 µM
  relative viability: 0.974
NCI-H23; first compound 0.01581 µM
  relative viability: 0.636
NCI-H23; first compound 0.05 µM
  relative viability: 0.734
NCI-H23; first compound 0.1581 µM
  relative viability: 0.203
NCI-H23; first compound 0.5 µM
  relative viability: 0.165
EPLC-272H; first compound 0.005 µM
  relative viability: 0.717
EPLC-272H; first compound 0.01581 µM
  relative viability: 0.756
EPLC-272H; first compound 0.05 µM
  relative viability: 0.592
EPLC-272H; first compound 0.1581 µM
  relative viability: 0.315
EPLC-272H; first compound 0.5 µM
  relative viability: 0.417
H3255; first compound 0.005 µM
  relative viability: 0.268
H3255; first compound 0.01581 µM
  relative viability: 0.226
H3255; first compound 0.05 µM
  relative viability: 0.158
H3255; first compound 0.1581 µM
  relative viability: 0.197
H3255; first compound 0.5 µM
  relative viability: 0.188
PC-14; first compound 0.005 µM
  relative viability: 0.282
PC-14; first compound 0.01581 µM
  relative viability: 0.236
PC-14; first compound 0.05 µM
  relative viability: 0.273
PC-14; first compound 0.1581 µM
  relative viability: 0.17
PC-14; first compound 0.5 µM
  relative viability: 0.221
201T; first compound 0.005 µM
  relative viability: 1.08
201T; first compound 0.01581 µM
  relative viability: 0.997
201T; first compound 0.05 µM
  relative viability: 1.04
201T; first compound 0.1581 µM
  relative viability: 0.889
201T; first compound 0.5 µM
  relative viability: 0.919
COR-L 105; first compound 0.005 µM
  relative viability: 0.299
COR-L 105; first compound 0.01581 µM
  relative viability: 0.328
COR-L 105; first compound 0.05 µM
  relative viability: 0.297
COR-L 105; first compound 0.1581 µM
  relative viability: 0.293
COR-L 105; first compound 0.5 µM
  relative viability: 0.252
NCI-H2126; first compound 0.005 µM
  relative viability: 0.73
NCI-H2126; first compound 0.01581 µM
  relative viability: 0.701
NCI-H2126; first compound 0.05 µM
  relative viability: 0.61
NCI-H2126; first compound 0.1581 µM
  relative viability: 0.516
NCI-H2126; first compound 0.5 µM
  relative viability: 0.449
NCI-H2347; first compound 0.005 µM
  relative viability: 1.01
NCI-H2347; first compound 0.01581 µM
  relative viability: 0.942
NCI-H2347; first compound 0.05 µM
  relative viability: 0.764
NCI-H2347; first compound 0.1581 µM
  relative viability: 0.659
NCI-H2347; first compound 0.5 µM
  relative viability: 0.825
NCI-H520; first compound 0.005 µM
  relative viability: 0.557
NCI-H520; first compound 0.01581 µM
  relative viability: 0.743
NCI-H520; first compound 0.05 µM
  relative viability: 0.911
NCI-H520; first compound 0.1581 µM
  relative viability: 0.552
NCI-H520; first compound 0.5 µM
  relative viability: 0.47
HCC-78; first compound 0.005 µM
  relative viability: 0.799
HCC-78; first compound 0.01581 µM
  relative viability: 0.595
HCC-78; first compound 0.05 µM
  relative viability: 0.353
HCC-78; first compound 0.1581 µM
  relative viability: 0.308
HCC-78; first compound 0.5 µM
  relative viability: 0.19
LCLC-97TM1; first compound 0.005 µM
  relative viability: 1.06
LCLC-97TM1; first compound 0.01581 µM
  relative viability: 0.495
LCLC-97TM1; first compound 0.05 µM
  relative viability: 0.163
LCLC-97TM1; first compound 0.1581 µM
  relative viability: 0.161
LCLC-97TM1; first compound 0.5 µM
  relative viability: 0.0949
NCI-H1915; first compound 0.005 µM
  relative viability: 0.868
NCI-H1915; first compound 0.01581 µM
  relative viability: 0.955
NCI-H1915; first compound 0.05 µM
  relative viability: 0.848
NCI-H1915; first compound 0.1581 µM
  relative viability: 0.393
NCI-H1915; first compound 0.5 µM
  relative viability: 0.257
NCI-H1666; first compound 0.005 µM
  relative viability: 0.455
NCI-H1666; first compound 0.01581 µM
  relative viability: 0.549
NCI-H1666; first compound 0.05 µM
  relative viability: 0.378
NCI-H1666; first compound 0.1581 µM
  relative viability: 0.308
NCI-H1666; first compound 0.5 µM
  relative viability: 0.262
NCI-H2405; first compound 0.005 µM
  relative viability: 0.937
NCI-H2405; first compound 0.01581 µM
  relative viability: 0.698
NCI-H2405; first compound 0.05 µM
  relative viability: 0.637
NCI-H2405; first compound 0.1581 µM
  relative viability: 0.483
NCI-H2405; first compound 0.5 µM
  relative viability: 0.294
NCI-H647; first compound 0.005 µM
  relative viability: 0.596
NCI-H647; first compound 0.01581 µM
  relative viability: 0.411
NCI-H647; first compound 0.05 µM
  relative viability: 0.27
NCI-H647; first compound 0.1581 µM
  relative viability: 0.128
NCI-H647; first compound 0.5 µM
  relative viability: 0.0883
LC-2-ad; first compound 0.005 µM
  relative viability: 0.878
LC-2-ad; first compound 0.01581 µM
  relative viability: 0.868
LC-2-ad; first compound 0.05 µM
  relative viability: 0.926
LC-2-ad; first compound 0.1581 µM
  relative viability: 0.26
LC-2-ad; first compound 0.5 µM
  relative viability: 0.192
NCI-H2087; first compound 0.005 µM
  relative viability: 1.04
NCI-H2087; first compound 0.01581 µM
  relative viability: 0.967
NCI-H2087; first compound 0.05 µM
  relative viability: 0.894
NCI-H2087; first compound 0.1581 µM
  relative viability: 0.678
NCI-H2087; first compound 0.5 µM
  relative viability: 0.402
NCI-H650; first compound 0.005 µM
  relative viability: 0.735
NCI-H650; first compound 0.01581 µM
  relative viability: 0.535
NCI-H650; first compound 0.05 µM
  relative viability: 0.363
NCI-H650; first compound 0.1581 µM
  relative viability: 0.202
NCI-H650; first compound 0.5 µM
  relative viability: 0.195
RERF-LC-KJ; first compound 0.005 µM
  relative viability: 0.885
RERF-LC-KJ; first compound 0.01581 µM
  relative viability: 0.751
RERF-LC-KJ; first compound 0.05 µM
  relative viability: 0.892
RERF-LC-KJ; first compound 0.1581 µM
  relative viability: 0.569
RERF-LC-KJ; first compound 0.5 µM
  relative viability: 0.47
HCC-827; first compound 0.005 µM
  relative viability: 0.192
HCC-827; first compound 0.01581 µM
  relative viability: 0.16
HCC-827; first compound 0.05 µM
  relative viability: 0.141
HCC-827; first compound 0.1581 µM
  relative viability: 0.136
HCC-827; first compound 0.5 µM
  relative viability: 0.125
NCI-H661; first compound 0.005 µM
  relative viability: 0.544
NCI-H661; first compound 0.01581 µM
  relative viability: 0.465
NCI-H661; first compound 0.05 µM
  relative viability: 0.49
NCI-H661; first compound 0.1581 µM
  relative viability: 0.278
NCI-H661; first compound 0.5 µM
  relative viability: 0.233
